“Also recorded” adds a separate entry of the source.
Target: T1, Chicken egg lysozyme (Gallus gallus, UniProt P00698)
T1 construct: Chicken egg lysozyme (EC 3.2.1.17, FisherBiotech, 3X crystallized, lot Nos. 995417-12 and 996924-12); purchased FisherBiotech; host or cells: chicken egg (natural source)
Experiment: Ligand binding to polycrystalline lysozyme detected by high resolution X-ray powder diffraction
Text: The screening method of the present invention can be as follows. Two samples of polycrystalline material are produced as slurries. By “slurry” is meant, for example, a suspension of microcrystals of a macromolecule or macromolecule-ligand complex in a liquid. One of the samples includes the target protein or macromolecule and a suitable solvent. The other of the samples includes the target protein or macromolecule, one or more selected ligands and the same solvent as in the first sample. High resolution powder diffraction patterns are obtained for the polycrystalline macromolecule material in each sample. The patterns from the first and second samples are then compared to see if there is any discernable difference between the two sets of diffraction patterns beyond expected or measured experimental error or variation. When there is such a discernable difference between the two sets of diffraction patterns, that is a positive indication for the formation of a complex between the target protein or macromolecule and one or more of the selected ligands. […] In another manner, the pattern of the first sample can be inspected or analyzed to determine the positions of the diffraction peaks from the unbound form of the target protein or macromolecule, while the pattern of the second sample can be inspected or analyzed to determine the positions of the diffraction peaks from the target protein or macromolecule in the presence of the one or more selected ligands. Differences in such diffraction peaks can then be used to determine if there is a difference indicating binding of a ligand. This process is readily automated via computerized data processing routines.
Chicken egg lysozyme (EC 3.2.1.17, FisherBiotech, 3X crystallized, lot Nos. 995417-12 and 996924-12) and N-acetylglucosamine (NAG, ICN Biomedicals, Inc. lot No. R9745), pH 6.0 0.05M Na2HPO4/KH2PO4 buffer (Fisher Sci.), pH 5.0 0.05M KHphthalate/NaOH buffer (Hydrion™, Aldrich Chem.) and NaCl (“Certified for Biological Use”, Fisher Sci.) were used as received. In a typical sample preparation, a polycrystalline slurry was made by combining ˜20 mg lysozyme (1.4 μmol), about 10 mg of NAG (45 μmol) and 200 μl of 0.5M NaCl pH 6.0 buffer with an agate mortar and pestle. Polycrystalline precipitate formed within a few seconds. The slurry was loaded into a 1.5 mm diameter glass capillary, and centrifuged to pack the slurry. Excess mother liquor was removed and the capillary flame sealed to prevent subsequent solvent evaporation. In a similar way, a polycrystalline sample of unbound lysozyme in pH 6.0 0.5M NaCl buffer was prepared. Similar samples with pH 5.0 0.5M NaCl buffer were also prepared. Samples were about 8 mm long. As each sample was prepared, X-ray powder diffraction data were immediately collected at room temperature (23° C.) on beam line X3bl at the National Synchrotron Light Source, Brookhaven National Laboratory, equipped with a double Si(111) monochromator and a Ge(111) analyser; the sample was spun during data collection to ensure good powder averaging.

T1 sequence (P00698 19-147): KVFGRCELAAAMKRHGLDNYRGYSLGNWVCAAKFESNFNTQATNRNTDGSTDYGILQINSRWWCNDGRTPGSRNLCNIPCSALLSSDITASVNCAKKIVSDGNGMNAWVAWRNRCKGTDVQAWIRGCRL

lattice parameter a smaller compared to pure lysozyme from the same solvent (pH 5.0 0.5M NaCl): 0.06% | lattice parameter c larger compared to pure lysozyme from the same solvent (pH 5.0 0.5M NaCl): 0.15% | lattice parameter a smaller compared to apo-protein precipitated from the same buffer (pH 6.0 0.5M NaCl): 0.21% | lattice parameter c larger compared to apo-protein precipitated from the same buffer (pH 6.0 0.5M NaCl): 0.49%
SMILES: CC(=O)N[C@H]1C(O)O[C@H](CO)[C@@H](O)[C@@H]1O (stereo partly shown) [NAG, N-acetylglucosamine]
change in powder diffraction pattern versus unbound lysozyme (complex formation) (slurry from pH 5.0 0.5M NaCl buffer, FIG. 2): no visible change in the powder pattern; also recorded: no changes evident | change in powder diffraction pattern versus unbound lysozyme (complex formation) (slurry from pH 6.0 0.5M NaCl buffer, FIG. 1): a structural modification has occurred associated with the formation of a NAG/lysozyme complex | change in powder diffraction pattern versus unbound lysozyme (complex formation) (slurry from pH 6.0 0.5M NaCl buffer, FIG. 1, listed as α-NAG): easily visible changes in the powder diffraction patterns
